# Test system: A II-infused rat
# Test: A II-infused rat model, antihypertensive activity (arterial pressure)
# Assay type: in vivo
# Details: 3 mg/kg id (duodenal cannula); four hours post-administration; mecamylamine ganglion blockade; A II infusion […]
# Description: In accordance with their ability to antagonize angiotensin II, the compounds of this invention show antihypertensive activity in the following A II-infused rat model. Rats are anesthetized with Dial-Urethane(0.60 mL/kg, ip) and the trachea cannulated with PE 240. Either one femoral artery and both femoral veins or the carotid artery and the corresponding jugular vein are cannulated with PE 50. If the jugular vein is cannulated, two cannulas are placed in the one vein. The initial portion of the duodenum (just distal to the stomach) is cannulated with PE 50 via a small midline incision. Arterial pressure and heart rate are measured from the arterial cannula. Ten to 15 min are allowed following surgery for stabilization of arterial pressure. Ganglion blockage is then produced by intravenous administration of mecamylamine at 3 mg/kg (1 mL/kg of a 3 mg/mL solution). Ganglion blockade causes a fall in arterial pressure of about 50 mmHg. Mecamylamine is given every 90 min throughout the remainder of the experiment. An A II infusion is then begun into the other venous cannula at 0.25 μg/kg/min (at 9.6 μL/min). The A II infusion returns arterial pressure to or slightly above the control level. Once arterial pressure has stabilized with the A II infusion, baseline values for mean arterial pressure (MAP) and heart rate are taken. […]
compound,measurement,value
"O=c1c(O)c(-c2ccccc2-c2ccc(CNc3nc(C(F)(F)F)nc4c3CCCC4)cc2)c1=O [Example 1, 3-hydroxy-4-[4'-[[[5,6,7,8-tetrahydro-2-(trifluoromethyl)-4-quinazolinyl]amino]methyl][1,1'-biphenyl]-2-yl]-3-cyclobutene-1,2-dione]",average lowering of the A II dependent blood pressure,52%

# — patent publication US5330989A, “Heterocycles substituted with biphenyl-3-cyclobutene-1,2-dione derivatives” (American Home Products Corporation, priority 1992, dated 1994)
